18 molecules from patent US8058243B2, “Method for treating a brain cancer with ifenprodil” (HSC Research and Development Limited Partnership, priority 2006, dated 2011) can be followed below.

This assay relates to murine neural precursor cells (neurosphere cultures). Kind of assay: HTS of LOPAC library against secondary neurosphere cultures, MTT proliferation assay at 3 μM, day 7 (z score, P value). Format: cell-based, mouse. For orientation: Tetrazolium assays rely on reduction of a dye to a coloured formazan, in cell work by metabolically active cells.
[1] abbreviates: LOPAC library screen, 3 μM, MTT, secondary neurosphere cultures, day 7.
Where [2] appears, read: LOPAC primary screen, neurosphere MTT proliferation, 3 μM, day 7.
Setting [3] is: primary LOPAC screen, 3 μM, MTT, neurosphere proliferation.
Setting [4] is: yes/no: significantly inhibited neurosphere proliferation in the primary screen.
Where [5] appears, read: yes = significantly inhibited neurosphere proliferation (P<0.01) in the primary screen.
Setting [6] is: LOPAC library screen, 3 μM, MTT, neurosphere cultures.
Setting [7] is: yes/no: significantly inhibited neurosphere proliferation (P<0.01) in the primary screen.
Setting [8] is: yes/no: significantly inhibited neurosphere proliferation (P<0.01) in primary screen.

Counter-ions that a name gives are not always drawn. Like-named read-outs stand apart in the source and are kept apart here.

Take `Fc1ccc(C(OCCN2CCN(CCCc3ccccc3)CC2)c2ccc(F)cc2)cc1` [GBR-12909 dihydrochloride]: under setting [1], the “Z Score” value was −10.9. Under setting [2], this molecule registered a Z score of −10.899.

Consider `N#C/C(=C\c1ccc(O)c(O)c1)C(=O)NCCCNC(=O)/C(C#N)=C/c1ccc(O)c(O)c1` [Tyrphostin AG 537], for which the “Z Score” value is on record as −1.249. Under setting [3], this molecule came in with a Z score of −1.249. Besides, under setting [4], the Activity entry is “no”.

As for `Cc1ccccc1N1C(=O)c2cc(S(N)(=O)=O)c(Cl)cc2NC1C` (centres unmarked) [Metolazone], the “Z Score” value under setting [1] is −8.113. This molecule registered a Z score under setting [2] of −8.113. Besides, the Activity entry under setting [5] was “yes”.

For the molecule `O=C1CN(/N=C/c2ccc(-c3ccc([N+](=O)[O-])cc3)o2)C(O)=N1` [Dantrolene sodium], the Activity entry was “no”. Also, the “Z Score” value under setting [6] turned out to be 0.7985. Also, the Z score (LOPAC screen, neurosphere MTT proliferation, 3 μM, day 7) came out at 0.798.

For the molecule `Cl.Cl.NCCc1c[nH]cn1` [Histamine dihydrochloride], the Activity entry is “no”, the “Z Score” value is reported as −1.476 and the Z score is recorded as −1.476.

Take `O=c1nc2[nH]c3ccccc3nc-2c(=O)[nH]1` [Alloxazine]: the “Z Score” value (LOPAC library screen at 3 μM, secondary neurosphere cultures, MTT) is reported as −0.4424. Further, the Z score under setting [3] is −0.442. The Activity result under setting [4] is on record as “no”.

`NCCCCNS(=O)(=O)c1ccc2c(Cl)cccc2c1` [N-(4-Aminobutyl)-5-chloro-2-naphthalenesulfonamide] displayed a Z score (168 h, 3 µM) of −0.923. The Activity entry (yes/no: significantly inhibited neurosphere proliferation in primary screen) is “no”.

For `O=c1[nH]cc(F)c(=O)[nH]1` [5-Fluorouracil], the “Z Score” value under setting [1] is −7.749. Besides, under setting [2], the Z score is −7.749. Further, the Activity entry under setting [5] was “yes”.

For `CN1CCN(CC/C=C2/c3ccccc3Sc3ccc(S(=O)(=O)N(C)C)cc32)CC1` [Thiothixene hydrochloride], the Activity result is “no”. For the setting “168 h, 3 µM”, the “Z Score” value was −1.899 and the Z score is reported as −1.899.

As for `O=c1cc(-c2ccc(O)cc2)oc2cc(O)cc(O)c12` [Apigenin], where the note is “168 h, 3 µM”, the “Z Score” value amounted to 1.824 and the Z score is on record as 1.824. For the same molecule, the Activity entry under setting [4] is reported as “no”.

Regarding `C[N+](C)(C)CCCCCCCCCC[N+](C)(C)C.[Br-].[Br-]` [Decamethonium dibromide], the “Z Score” value is given as −1.572. In addition, under setting [2], the Z score was −1.572. Besides, the Activity entry under setting [7] is reported as “no”.

Take `COc1cccc(C(=O)NCCN2CCN(c3ccc(Cl)cc3)CC2)c1` [N-(2-[4-(4-Chlorophenyl)piperazin-1-yl]ethyl)-3-methoxybenzamide]: the “Z Score” value under setting [6] was 0.3828. Under setting [2], this molecule gave a Z score of 0.383. Under setting [7], the Activity result is reported as “no”.

Take `CCCn1c(=O)c2[nH]c(C3CCCC3)nc2n(CCCOC(=O)c2ccc(S(=O)(=O)F)cc2)c1=O` [FSCPX]: the “Z Score” value is 0.7825. The molecule also came in with a Z score under setting [2] of 0.782. The Activity entry under setting [8] is given as “no”.

As to `N=C(N)N/N=C/c1c(Cl)cccc1Cl` [Guanabenz acetate], the “Z Score” value under setting [1] is −1.906. Besides, the Z score under setting [2] is listed as −1.906. For the same molecule, under setting [8], the Activity entry was “no”.

With `NNc1nncc2ccccc12` [Hydralazine hydrochloride], under setting [6], the “Z Score” value amounted to 0.2592. For the same molecule, the Z score under setting [2] is given as 0.259. Moreover, the Activity result under setting [8] is recorded as “no”.

Turning to `N[C@@H](Cn1cc(I)c(=O)[nH]c1=O)C(=O)O` [S-5-Iodowillardiine], the “Z Score” value is −0.3551. This molecule registered a Z score under setting [3] of −0.355. For the same molecule, the Activity result under setting [4] is given as “no”.

On to `CN(C)C(N)=NCCC[C@H](N)C(=O)O.Cl`, for which the “Z Score” value is recorded as −1.373.

Consider `CCCCCCCCC(=O)NCc1ccc(O)c(OC)c1` [N-Vanillylnonanamide], for which the “Z Score” value under setting [1] is recorded as −9.029. The Z score under setting [2] is on record as −9.029. Besides, the Activity entry under setting [7] was “yes”.
